Assay [1] concerns the target 5'-AMP-activated protein kinase catalytic subunit alpha-1 (Homo sapiens, UniProt Q13131). Put plainly: Cellular mechanistic pACC assay using IMR-32 neuroblastoma cells. In kind it is cell-based.
The target in assay [2] is RAC-gamma serine/threonine-protein kinase (Homo sapiens) (UniProt Q9Y243). The following applies: Compound concentration 1000.0 nM.
Assay [3] concerns the target Aurora kinase B (Homo sapiens) (UniProt Q96GD4). As to conditions: Compound concentration 1000.0 nM; call rule not given here.
Assay [4] concerns the target Death-associated protein kinase 2 (Homo sapiens) (UniProt Q9UIK4). The following applies: Compound concentration 1000.0 nM.
In assay [5] the target is Mitogen-activated protein kinase 4 (Homo sapiens) (UniProt P31152). The following applies: Compound concentration 1000.0 nM.
Assay [6] concerns Receptor-type tyrosine-protein kinase FLT3 (Homo sapiens), P36888 [D835H]. The following applies: Compound concentration 1000.0 nM.
The subject of assay [7] is Receptor-type tyrosine-protein kinase FLT3 (Homo sapiens), P36888 [R834Q]. As to conditions: Compound concentration 1000.0 nM.
For assay [8], the target named is Serine/threonine-protein kinase 10 (Homo sapiens) (UniProt O94804). As to conditions: Compound concentration 1000.0 nM.
Assay [9] has as its target Serine/threonine-protein kinase MARK1 (Homo sapiens) (UniProt Q9P0L2). The following applies: Compound concentration 1000.0 nM.
Assay [10] concerns the target Serine/threonine-protein kinase 38 (Homo sapiens) (UniProt Q15208). The following applies: Compound concentration 1000.0 nM.
For assay [11], the target named is Mitogen-activated protein kinase kinase kinase 14 (Homo sapiens) (UniProt Q99558). The following applies: Compound concentration 1000.0 nM.
Sequence of Mitogen-activated protein kinase kinase kinase 14 (Homo sapiens) (Q99558 whole entry, looked up): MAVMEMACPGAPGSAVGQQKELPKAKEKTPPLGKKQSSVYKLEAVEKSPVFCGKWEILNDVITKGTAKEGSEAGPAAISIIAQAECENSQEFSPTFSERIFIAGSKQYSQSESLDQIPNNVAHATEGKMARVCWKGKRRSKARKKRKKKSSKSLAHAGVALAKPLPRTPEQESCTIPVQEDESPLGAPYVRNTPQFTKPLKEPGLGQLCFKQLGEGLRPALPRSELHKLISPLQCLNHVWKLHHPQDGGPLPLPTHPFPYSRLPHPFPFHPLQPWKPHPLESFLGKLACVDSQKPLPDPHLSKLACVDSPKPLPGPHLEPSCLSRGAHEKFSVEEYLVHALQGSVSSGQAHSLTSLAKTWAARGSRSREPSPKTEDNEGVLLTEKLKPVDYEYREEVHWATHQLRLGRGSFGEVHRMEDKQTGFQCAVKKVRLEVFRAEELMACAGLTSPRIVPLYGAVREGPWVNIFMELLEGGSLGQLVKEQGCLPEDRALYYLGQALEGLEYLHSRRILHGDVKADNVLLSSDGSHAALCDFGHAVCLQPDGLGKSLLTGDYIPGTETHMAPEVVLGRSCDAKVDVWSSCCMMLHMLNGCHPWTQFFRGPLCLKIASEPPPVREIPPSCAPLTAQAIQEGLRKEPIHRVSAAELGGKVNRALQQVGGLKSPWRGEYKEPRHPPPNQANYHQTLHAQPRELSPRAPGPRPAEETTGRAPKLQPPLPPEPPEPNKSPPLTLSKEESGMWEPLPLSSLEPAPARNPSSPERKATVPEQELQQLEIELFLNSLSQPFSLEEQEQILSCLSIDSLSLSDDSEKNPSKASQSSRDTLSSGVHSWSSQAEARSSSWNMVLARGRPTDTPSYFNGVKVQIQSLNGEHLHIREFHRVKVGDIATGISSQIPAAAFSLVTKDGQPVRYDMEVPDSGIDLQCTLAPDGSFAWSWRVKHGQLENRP
Assay [12] deals with Serine/threonine-protein kinase PAK 2 (Homo sapiens) (UniProt Q13177). The following applies: Compound concentration 1000.0 nM.
Assay [13] concerns the target Calcium-dependent protein kinase 1 (Plasmodium falciparum) (UniProt P62344). As to conditions: Compound concentration 1000.0 nM.
In assay [14] the target is Phosphorylase b kinase gamma catalytic chain, skeletal muscle/heart isoform (Homo sapiens) (UniProt Q16816). As to conditions: Compound concentration 1000.0 nM.
Sequence of Phosphorylase b kinase gamma catalytic chain, skeletal muscle/heart isoform (Homo sapiens) (Q16816 whole entry, looked up, canonical isoform): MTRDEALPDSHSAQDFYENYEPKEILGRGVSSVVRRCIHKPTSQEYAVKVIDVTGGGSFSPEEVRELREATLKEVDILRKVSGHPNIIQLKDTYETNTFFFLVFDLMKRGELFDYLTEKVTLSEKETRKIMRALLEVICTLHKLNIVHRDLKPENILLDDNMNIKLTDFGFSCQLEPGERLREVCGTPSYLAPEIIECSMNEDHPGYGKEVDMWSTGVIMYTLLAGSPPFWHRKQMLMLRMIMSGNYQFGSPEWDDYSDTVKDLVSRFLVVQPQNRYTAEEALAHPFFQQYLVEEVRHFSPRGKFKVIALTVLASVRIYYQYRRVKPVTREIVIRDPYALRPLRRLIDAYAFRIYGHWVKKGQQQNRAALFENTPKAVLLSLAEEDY
In assay [15] the target is cAMP-dependent protein kinase catalytic subunit alpha (Homo sapiens) (UniProt P17612). As to conditions: Compound concentration 1000.0 nM.
Assay [16] addresses T1, Serine/threonine-protein kinase D2 (Homo sapiens) (UniProt Q9BZL6).
T1 sequence (whole entry): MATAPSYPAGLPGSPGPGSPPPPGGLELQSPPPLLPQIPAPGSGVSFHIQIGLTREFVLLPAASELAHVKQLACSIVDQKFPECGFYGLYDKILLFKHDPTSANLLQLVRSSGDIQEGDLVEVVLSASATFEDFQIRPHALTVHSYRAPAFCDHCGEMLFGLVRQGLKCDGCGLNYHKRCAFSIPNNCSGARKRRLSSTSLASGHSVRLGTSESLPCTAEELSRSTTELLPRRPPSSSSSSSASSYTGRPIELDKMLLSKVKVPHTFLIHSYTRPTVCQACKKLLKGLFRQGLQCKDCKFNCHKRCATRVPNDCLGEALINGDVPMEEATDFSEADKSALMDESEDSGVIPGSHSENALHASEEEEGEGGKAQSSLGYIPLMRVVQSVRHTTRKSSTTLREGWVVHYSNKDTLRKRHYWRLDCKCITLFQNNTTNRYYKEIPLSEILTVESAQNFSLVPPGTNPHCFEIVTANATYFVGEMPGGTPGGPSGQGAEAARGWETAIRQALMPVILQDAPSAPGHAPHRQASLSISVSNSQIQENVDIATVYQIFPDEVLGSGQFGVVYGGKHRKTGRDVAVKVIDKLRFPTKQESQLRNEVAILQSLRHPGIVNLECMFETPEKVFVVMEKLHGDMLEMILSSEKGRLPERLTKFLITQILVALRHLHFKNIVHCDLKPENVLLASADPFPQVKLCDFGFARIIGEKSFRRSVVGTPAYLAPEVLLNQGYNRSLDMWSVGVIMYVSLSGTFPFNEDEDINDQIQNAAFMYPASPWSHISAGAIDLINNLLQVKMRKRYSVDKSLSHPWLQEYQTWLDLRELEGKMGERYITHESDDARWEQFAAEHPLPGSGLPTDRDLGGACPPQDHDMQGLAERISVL
As to conditions: Compound concentration 1000.0 nM.

The target of assay [17] is Receptor-interacting serine/threonine-protein kinase 4 (Homo sapiens) (UniProt P57078). The following applies: Compound concentration 1000.0 nM.
Sequence of Receptor-interacting serine/threonine-protein kinase 4 (Homo sapiens) (P57078 whole entry): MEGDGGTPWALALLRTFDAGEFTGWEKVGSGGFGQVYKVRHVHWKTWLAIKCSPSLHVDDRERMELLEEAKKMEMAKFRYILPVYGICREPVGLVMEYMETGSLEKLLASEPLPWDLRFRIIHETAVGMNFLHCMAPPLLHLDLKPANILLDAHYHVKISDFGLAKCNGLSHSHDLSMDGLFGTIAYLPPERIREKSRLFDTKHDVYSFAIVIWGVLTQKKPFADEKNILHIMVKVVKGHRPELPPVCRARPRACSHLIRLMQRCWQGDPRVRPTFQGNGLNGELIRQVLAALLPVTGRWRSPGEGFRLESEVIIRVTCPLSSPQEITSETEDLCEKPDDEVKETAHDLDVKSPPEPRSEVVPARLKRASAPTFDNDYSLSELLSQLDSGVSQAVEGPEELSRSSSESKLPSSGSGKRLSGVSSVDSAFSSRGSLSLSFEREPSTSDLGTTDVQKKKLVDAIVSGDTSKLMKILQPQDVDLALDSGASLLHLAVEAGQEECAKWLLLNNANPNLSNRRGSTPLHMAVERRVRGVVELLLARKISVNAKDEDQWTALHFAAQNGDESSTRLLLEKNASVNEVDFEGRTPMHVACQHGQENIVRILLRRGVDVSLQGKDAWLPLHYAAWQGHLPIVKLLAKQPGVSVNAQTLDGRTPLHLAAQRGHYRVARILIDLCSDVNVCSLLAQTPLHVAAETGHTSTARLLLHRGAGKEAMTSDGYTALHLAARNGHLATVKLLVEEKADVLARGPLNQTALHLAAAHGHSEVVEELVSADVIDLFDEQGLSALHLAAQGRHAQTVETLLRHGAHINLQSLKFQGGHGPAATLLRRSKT
In assay [18] the target is Ribosomal protein S6 kinase beta-1 (Homo sapiens) (UniProt P23443). As to conditions: Compound concentration 1000.0 nM.
Sequence of Ribosomal protein S6 kinase beta-1 (Homo sapiens) (P23443 whole entry, looked up): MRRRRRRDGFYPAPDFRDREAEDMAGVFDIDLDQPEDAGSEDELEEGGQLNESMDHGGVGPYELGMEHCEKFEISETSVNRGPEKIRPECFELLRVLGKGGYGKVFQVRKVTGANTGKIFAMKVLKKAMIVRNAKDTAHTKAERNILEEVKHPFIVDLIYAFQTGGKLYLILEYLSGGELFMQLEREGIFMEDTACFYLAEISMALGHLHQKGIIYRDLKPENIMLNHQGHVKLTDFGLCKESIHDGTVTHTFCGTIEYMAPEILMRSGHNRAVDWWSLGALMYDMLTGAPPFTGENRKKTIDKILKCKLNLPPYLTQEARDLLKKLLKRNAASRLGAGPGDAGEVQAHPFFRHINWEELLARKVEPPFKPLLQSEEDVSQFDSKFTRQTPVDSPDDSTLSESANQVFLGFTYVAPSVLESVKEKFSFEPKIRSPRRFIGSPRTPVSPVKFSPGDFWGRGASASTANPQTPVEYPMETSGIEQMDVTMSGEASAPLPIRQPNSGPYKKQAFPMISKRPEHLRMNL
The target in assay [19] is Serine/threonine-protein kinase 36 (Homo sapiens) (UniProt Q9NRP7). As to conditions: Compound concentration 1000.0 nM.
Sequence of Serine/threonine-protein kinase 36 (Homo sapiens) (Q9NRP7 whole entry): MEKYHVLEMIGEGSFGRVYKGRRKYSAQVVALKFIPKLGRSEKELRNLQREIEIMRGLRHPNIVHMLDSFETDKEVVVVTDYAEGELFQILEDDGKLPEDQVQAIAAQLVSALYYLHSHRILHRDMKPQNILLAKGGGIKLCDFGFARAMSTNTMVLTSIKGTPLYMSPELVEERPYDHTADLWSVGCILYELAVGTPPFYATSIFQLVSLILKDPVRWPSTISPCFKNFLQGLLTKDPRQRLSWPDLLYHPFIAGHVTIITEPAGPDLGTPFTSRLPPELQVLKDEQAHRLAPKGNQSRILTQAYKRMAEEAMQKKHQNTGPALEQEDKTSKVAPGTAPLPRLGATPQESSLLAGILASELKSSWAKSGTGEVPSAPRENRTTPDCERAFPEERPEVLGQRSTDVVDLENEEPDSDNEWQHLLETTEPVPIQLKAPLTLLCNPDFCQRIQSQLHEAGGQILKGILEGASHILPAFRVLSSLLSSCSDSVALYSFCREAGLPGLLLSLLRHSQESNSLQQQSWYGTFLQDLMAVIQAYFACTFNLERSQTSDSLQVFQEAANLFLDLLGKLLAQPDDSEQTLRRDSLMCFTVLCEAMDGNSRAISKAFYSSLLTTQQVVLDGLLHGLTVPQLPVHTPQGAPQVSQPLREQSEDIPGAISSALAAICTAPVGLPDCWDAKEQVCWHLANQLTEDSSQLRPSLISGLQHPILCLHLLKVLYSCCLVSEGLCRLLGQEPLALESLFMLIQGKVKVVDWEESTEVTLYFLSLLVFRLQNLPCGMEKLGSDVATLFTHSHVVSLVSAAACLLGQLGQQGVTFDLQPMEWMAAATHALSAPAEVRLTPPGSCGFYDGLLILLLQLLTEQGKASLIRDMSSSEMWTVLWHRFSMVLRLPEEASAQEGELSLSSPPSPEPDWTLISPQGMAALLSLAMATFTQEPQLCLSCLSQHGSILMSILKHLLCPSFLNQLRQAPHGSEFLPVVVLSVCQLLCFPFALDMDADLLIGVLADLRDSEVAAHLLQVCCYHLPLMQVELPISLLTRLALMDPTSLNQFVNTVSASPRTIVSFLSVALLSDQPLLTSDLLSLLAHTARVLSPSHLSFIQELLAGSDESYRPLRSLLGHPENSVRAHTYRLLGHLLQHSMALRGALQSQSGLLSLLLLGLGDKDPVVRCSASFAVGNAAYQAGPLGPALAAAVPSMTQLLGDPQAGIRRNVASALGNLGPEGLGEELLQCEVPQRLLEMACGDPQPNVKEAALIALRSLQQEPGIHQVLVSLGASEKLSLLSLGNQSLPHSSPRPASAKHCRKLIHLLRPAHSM
Assay [20] concerns the target T2, Serine/threonine-protein kinase TBK1 (Homo sapiens) (UniProt Q9UHD2).
T2 sequence (whole entry): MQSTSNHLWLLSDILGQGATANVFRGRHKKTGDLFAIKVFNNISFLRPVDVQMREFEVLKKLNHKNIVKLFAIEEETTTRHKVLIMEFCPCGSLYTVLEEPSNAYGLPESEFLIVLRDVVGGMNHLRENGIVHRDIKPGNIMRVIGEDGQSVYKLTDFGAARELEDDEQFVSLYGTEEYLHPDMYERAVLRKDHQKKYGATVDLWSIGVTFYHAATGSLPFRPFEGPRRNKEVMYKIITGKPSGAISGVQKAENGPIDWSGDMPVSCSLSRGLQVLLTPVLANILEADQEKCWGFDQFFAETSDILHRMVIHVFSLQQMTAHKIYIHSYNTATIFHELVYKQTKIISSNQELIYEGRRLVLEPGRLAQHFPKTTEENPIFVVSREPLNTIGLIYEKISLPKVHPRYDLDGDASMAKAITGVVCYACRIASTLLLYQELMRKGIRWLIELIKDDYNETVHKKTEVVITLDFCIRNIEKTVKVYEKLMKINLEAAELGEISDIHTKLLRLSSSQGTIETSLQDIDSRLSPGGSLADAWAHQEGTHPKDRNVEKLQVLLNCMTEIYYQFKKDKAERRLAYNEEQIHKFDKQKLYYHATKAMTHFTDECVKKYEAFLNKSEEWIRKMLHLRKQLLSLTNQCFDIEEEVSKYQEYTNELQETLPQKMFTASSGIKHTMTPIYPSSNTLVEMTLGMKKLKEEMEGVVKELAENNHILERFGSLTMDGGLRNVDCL
As to conditions: Compound concentration 1000.0 nM.

In assay [21] the target is Activated CDC42 kinase 1 (Homo sapiens) (UniProt Q07912). The following applies: Compound concentration 1000.0 nM.
The target of assay [22] is Alpha-1A adrenergic receptor (Homo sapiens) (UniProt P35348). As to conditions: Compound concentration 10.0 uM.
In assay [23] the target is Muscarinic acetylcholine receptor M2 (Homo sapiens) (UniProt P08172). As to conditions: Compound concentration 10.0 uM.

Sequence of 5'-AMP-activated protein kinase catalytic subunit alpha-1 (Q13131 whole entry): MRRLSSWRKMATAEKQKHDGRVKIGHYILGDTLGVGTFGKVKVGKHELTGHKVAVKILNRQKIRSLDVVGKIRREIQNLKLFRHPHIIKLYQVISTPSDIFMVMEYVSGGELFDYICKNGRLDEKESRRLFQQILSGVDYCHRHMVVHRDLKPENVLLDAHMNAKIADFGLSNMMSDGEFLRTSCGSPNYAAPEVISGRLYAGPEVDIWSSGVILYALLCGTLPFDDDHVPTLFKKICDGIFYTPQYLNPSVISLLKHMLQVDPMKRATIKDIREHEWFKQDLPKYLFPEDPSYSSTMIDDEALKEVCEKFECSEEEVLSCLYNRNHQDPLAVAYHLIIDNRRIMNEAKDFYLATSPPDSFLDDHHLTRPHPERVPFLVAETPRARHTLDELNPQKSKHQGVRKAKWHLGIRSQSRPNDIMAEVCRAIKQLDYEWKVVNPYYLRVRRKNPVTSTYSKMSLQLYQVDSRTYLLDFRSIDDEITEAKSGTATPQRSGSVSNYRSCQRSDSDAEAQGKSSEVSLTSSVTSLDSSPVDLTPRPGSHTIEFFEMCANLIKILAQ
Sequence of Serine/threonine-protein kinase 38 (Homo sapiens) (Q15208 2-465 limits assumed): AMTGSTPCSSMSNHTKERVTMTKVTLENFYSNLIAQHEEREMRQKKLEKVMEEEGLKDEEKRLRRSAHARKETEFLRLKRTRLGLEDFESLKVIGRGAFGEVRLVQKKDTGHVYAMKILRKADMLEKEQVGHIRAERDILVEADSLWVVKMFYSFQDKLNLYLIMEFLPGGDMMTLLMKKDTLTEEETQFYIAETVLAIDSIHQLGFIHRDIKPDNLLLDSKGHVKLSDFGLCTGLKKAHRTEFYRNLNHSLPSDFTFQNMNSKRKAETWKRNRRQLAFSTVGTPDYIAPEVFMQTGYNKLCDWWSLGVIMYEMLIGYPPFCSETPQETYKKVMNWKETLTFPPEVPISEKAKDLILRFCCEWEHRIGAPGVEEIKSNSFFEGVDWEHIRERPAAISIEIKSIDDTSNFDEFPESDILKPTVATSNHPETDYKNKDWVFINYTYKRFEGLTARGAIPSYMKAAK

In general, IC50 refers to the concentration needed to halve the response being measured. In general, inhibition refers to the relative decrease from the control value, in per cent. `CC1=C(C#N)C(c2ccc3c(c2)c(NC(=O)c2ccccc2C)nn3C)C(C#N)=C(C)N1` [BAY-974]: the concentration for half-maximal inhibition (IC50) in assay [1] is given as > 30 µM (not active). For the same molecule, the residual activity in assay [2] was 93%; in assay [3], 66%; in assay [4], 98%; in assay [5], 100%; in assay [6], 99%; in assay [7] it was 90%. Also, the residual activity in [8] was 68%; in assay [9] it was 100%; in [10], 96%; in assay [11], 69%; in assay [12], 100%; in [13], 98%. Also, the residual activity was 91% in [14]; 77% in assay [15]; 95% in assay [16]; 78% in assay [17]; 74% in [18]; 87% in assay [19]. Besides, the residual activity was 69% in assay [20] and 86% in [21]. Besides, the inhibition in assay [22] is 1.96%; in [23] it was -2.08%.

Molecule `CCc1ccccc1C(=O)Nc1n[nH]c2c(C)c(F)c(C3C(C#N)=C(C)N(C)C(C)=C3C#N)cc12` [BAY-3827] registered an IC50 in assay [1] of 0.15 µM. Moreover, the residual activity was 100% in assay [2]; 88% in assay [3]; 63% in assay [4]; 96% in [5]; 16% in [6]; 89% in assay [7]. The residual activity is 100% in assay [8]; 36% in [9]; 100% in [10]; 75% in [11]; 75% in [12]; 100% in assay [13]. For the same molecule, the residual activity is 44% in assay [14]; 89% in assay [15]; 87% in assay [16]; 92% in assay [17]; 80% in assay [18]; 100% in assay [19]. Also, the residual activity was 77% in [20] and 81% in [21]. Moreover, the inhibition in assay [22] is 6.85%; in [23] it was 5.1%.

(Values after ChEMBL document CHEMBL4507319 (2021).)
